Legend:
[1] = format: physicochemical; settings: extraction time varied 0-60 minutes; dihexyl ether; 900 rpm
[2] = from reference [17]; cited from earlier work

## O=C(CCCN1CCC(O)(c2ccc(Cl)cc2)CC1)c1ccc(F)cc1 [Haloperidol]
[1]
  Extraction time for PALME system to enter equilibrium: 15 min

## CCC(=O)C(CC(C)N(C)C)(c1ccccc1)c1ccccc1 (centres unmarked) [Methadone]
[2]
  Therapeutic range: 100 to 500 ng/mL
[1]
  Extraction time for PALME system to enter equilibrium: 15 min

## CCOC(=O)C1(c2ccccc2)CCN(C)CC1 [Pethidine]
[2]
  Therapeutic range: 100 to 800 ng/mL

## CNCCC=C1c2ccccc2CCc2ccccc21 [Nortriptyline]
[1]
  Extraction time for PALME system to enter equilibrium: 30 min

Reference: patent US20150276568A1 (priority 2012, published 2015)
